13 compounds from ChEMBL document CHEMBL4732070, “Design, synthesis and biological assessment of new selective COX-2 inhibitors including methyl sulfonyl moiety” (Eur J Med Chem, 2021) can be followed below.

Experiment [1] has as its target T1, Prostaglandin G/H synthase 1 (Homo sapiens, UniProt P23219). In words: Inhibition of COX-1 (unknown origin) using arachidonic acid as substrate at 1000 uM measured after 10 mins by fluorometric based multimode microplate reader relative to control.
In experiment [2] the target is T1, Prostaglandin G/H synthase 1. The experiment can be described thus: Inhibition of COX-1 (unknown origin) using arachidonic acid as substrate at 100 uM measured after 10 mins by fluorometric based multimode microplate reader relative to control.
For experiment [3] the target is unchanged. In words: Inhibition of COX-1 (unknown origin) using arachidonic acid as substrate measured after 10 mins by fluorometric based multimode microplate reader.

T1 sequence (P23219 whole entry): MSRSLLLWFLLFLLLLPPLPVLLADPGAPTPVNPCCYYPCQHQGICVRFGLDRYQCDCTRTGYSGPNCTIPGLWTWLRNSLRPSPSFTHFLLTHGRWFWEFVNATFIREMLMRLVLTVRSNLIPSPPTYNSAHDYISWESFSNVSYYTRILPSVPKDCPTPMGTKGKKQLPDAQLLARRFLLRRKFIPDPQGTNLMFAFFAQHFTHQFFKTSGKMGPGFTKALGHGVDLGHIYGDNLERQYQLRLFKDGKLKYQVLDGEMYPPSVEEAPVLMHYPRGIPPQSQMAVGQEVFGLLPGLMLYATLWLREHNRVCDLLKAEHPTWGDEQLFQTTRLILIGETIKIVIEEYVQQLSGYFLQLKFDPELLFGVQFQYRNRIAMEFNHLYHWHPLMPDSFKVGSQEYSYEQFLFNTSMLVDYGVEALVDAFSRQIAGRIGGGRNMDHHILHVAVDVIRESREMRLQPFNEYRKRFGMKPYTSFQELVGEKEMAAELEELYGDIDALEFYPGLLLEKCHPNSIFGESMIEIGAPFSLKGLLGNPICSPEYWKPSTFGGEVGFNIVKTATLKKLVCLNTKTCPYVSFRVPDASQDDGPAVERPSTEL

`COc1ccc(O)c(/C=N/Nc2nc(-c3ccc(S(C)(=O)=O)cc3)cs2)c1`: the results for the inhibition in experiment [1] and in experiment [2] were 53% and 43%, respectively. Also, the concentration for half-maximal inhibition (IC50) (as a rule, the point on the concentration scale where inhibition reaches its midpoint) in experiment [3] is more than 100 µM.
The matching figures for `COc1cc(/C=N/Nc2nc(-c3ccc(S(C)(=O)=O)cc3)cs2)cc(OC)c1O`: 43.3%, 32.3% and more than 1000 µM.
The like results for `COc1cccc(/C=N/Nc2nc(-c3ccc(S(C)(=O)=O)cc3)cs2)c1OC` were, in that order, 57.4%, 40.8% and more than 100 µM.
For `COc1ccccc1/C=N/Nc1nc(-c2ccc(S(C)(=O)=O)cc2)cs1`, the figures for the inhibition in experiment [1] and in experiment [2] were 43.1% and 30.8%, respectively. In addition, in experiment [3], the IC50 was more than 1000 µM.
With `COc1ccc(OC)c(/C=N/Nc2nc(-c3ccc(S(C)(=O)=O)cc3)cs2)c1`, the results for the inhibition in experiment [1] and in experiment [2] were 60% and 35%, respectively. Further, the concentration for half-maximal inhibition (IC50) in experiment [3] was more than 100 µM.
For the compound `COc1ccc(/C=N/Nc2nc(-c3ccc(S(C)(=O)=O)cc3)cs2)cc1O`, the inhibition (usually how much of the control response was suppressed) was 61.3% in experiment [1] and 41.2% in experiment [2]. The compound also gave an IC50 in experiment [3] of more than 100 µM.
The matching figures for `COc1cc(/C=N/Nc2nc(-c3ccc(S(C)(=O)=O)cc3)cs2)cc(OC)c1OC`: 45.7%, 35.8% and more than 1000 µM.
The like results for `CS(=O)(=O)c1ccc(-c2csc(N/N=C/c3ccc(O)cc3O)n2)cc1` were, in that order, 47.1%, 31.4% and more than 1000 µM.
The like results for `CS(=O)(=O)c1ccc(-c2csc(N/N=C/c3ccc(O)cc3)n2)cc1` were, in that order, 48.9%, 32.2% and more than 1000 µM.
Take `CS(=O)(=O)c1ccc(-c2csc(N/N=C/c3cccc(O)c3)n2)cc1`: the inhibition in experiment [1] is 66.3%; in experiment [2], 40.9%. The same compound had an IC50 in experiment [3] of more than 100 µM.
In experiment [2], `CC(C)Cc1ccc(C(C)C(=O)O)cc1` (configuration not stated) registered an inhibition of 89.4%.
Take `COc1ccc(/C=N/Nc2nc(-c3ccc(S(C)(=O)=O)cc3)cs2)cc1OC`: the inhibition is 55.6% in experiment [1] and 40% in experiment [2]. Also, the concentration for half-maximal inhibition (IC50) in experiment [3] was more than 100 µM.
The like results for `COc1ccc(/C=N/Nc2nc(-c3ccc(S(C)(=O)=O)cc3)cs2)c(OC)c1` were, in that order, 44.6%, 27.7% and more than 1000 µM.
